Assay results from PubChem BioAssay AID248 (DTP/NCI, 2004).
Values joined by “and” are separate entries in the source; they are usually repeats but may differ in a detail not shown here. Equal values may be shown once. Toxic doses and inconclusive results are not listed.

System: L1210 leukemia ip in BDF1 mice, survival T/C
Experiment: NCI In Vivo Anticancer Drug Screen. Data for tumor model L1210 Leukemia (intraperitoneal) in B6D2F1 (BDF1) mice
Conditions: endpoint: mean survival time, higher = longer survival
How it was run: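 Antitumor effect is assessed in tumor-bearing animals. Survival in the compound arm is compared with a vehicle-dosed control arm and expressed as their quotient.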

[1] = dose: 25.0 mg/kg/injection, schedule: Q01DX009 (ip), vehicle: saline
[2] = dose: 25.0 mg/kg/injection, schedule: Q04DX003 (ip), vehicle: saline
[3] = dose: 50.0 mg/kg/injection, schedule: Q01DX009 (ip), vehicle: saline
[4] = dose: 50.0 mg/kg/injection, schedule: Q04DX003 (ip), vehicle: saline
[5] = dose: 100.0 mg/kg/injection, schedule: Q01DX001 (ip), vehicle: saline
[6] = dose: 100.0 mg/kg/injection, schedule: Q04DX003 (ip), vehicle: saline
[7] = dose: 100.0 mg/kg/injection, schedule: Q01DX009 (ip), vehicle: saline
[8] = dose: 200.0 mg/kg/injection, schedule: Q01DX009 (ip), vehicle: saline
[9] = dose: 400.0 mg/kg/injection, schedule: Q01DX009 (ip), vehicle: saline
[10] = dose: 100.0 mg/kg/injection, schedule: Q01DX009 (ip), vehicle: Klucel (hydroxypropylcellulose) (HPC)
[11] = dose: 100.0 mg/kg/injection, schedule: Q04DX003 (ip), vehicle: Klucel (hydroxypropylcellulose) (HPC)
[12] = dose: 200.0 mg/kg/injection, schedule: Q01DX009 (ip), vehicle: Klucel (hydroxypropylcellulose) (HPC)
[13] = dose: 200.0 mg/kg/injection, schedule: Q04DX003 (ip), vehicle: Klucel (hydroxypropylcellulose) (HPC)
[14] = dose: 400.0 mg/kg/injection, schedule: Q01DX009 (ip), vehicle: Klucel (hydroxypropylcellulose) (HPC)
[15] = dose: 400.0 mg/kg/injection, schedule: Q04DX003 (ip), vehicle: Klucel (hydroxypropylcellulose) (HPC)
[16] = dose: 100.0 mg/kg/injection, schedule: Q01DX009 (ip), vehicle: saline with Tween-80
[17] = dose: 200.0 mg/kg/injection, schedule: Q01DX009 (ip), vehicle: saline with Tween-80
[18] = dose: 100.0 mg/kg/injection, schedule: Q01DX001 (ip), vehicle: Klucel (hydroxypropylcellulose) (HPC)
[19] = dose: 200.0 mg/kg/injection, schedule: Q01DX001 (ip), vehicle: Klucel (hydroxypropylcellulose) (HPC)
[20] = dose: 400.0 mg/kg/injection, schedule: Q01DX001 (ip), vehicle: Klucel (hydroxypropylcellulose) (HPC)
[21] = dose: 200.0 mg/kg/injection, schedule: Q04DX003 (ip), vehicle: saline
[22] = dose: 400.0 mg/kg/injection, schedule: Q04DX003 (ip), vehicle: saline

SMILES: COC(=O)c1cn[nH]c1N1CC[N+](CCCl)=N1
- T/C [1]: 97 % of control
- T/C [2]: 102 % of control
- T/C [3]: 106 % of control
- T/C [4]: 104 % of control
- T/C [5]: 100 % of control
- T/C [6]: 104 % of control

SMILES: CNC(=O)c1ccc(NC(=O)Nc2ccc(C3=NCCCN3)cc2)cc1NC(=O)Nc1ccc(C2=NCCCN2)cc1
- T/C (dose: 11.5 mg/kg/injection, schedule: Q01DX Z (ip), vehicle: carboxymethylcellulose (CMC)): 108 % of control
- T/C (dose: 23.0 mg/kg/injection, schedule: Q01DX Z (ip), vehicle: carboxymethylcellulose (CMC)): 107 % of control
- T/C (dose: 46.0 mg/kg/injection, schedule: Q01DX Z (ip), vehicle: carboxymethylcellulose (CMC)): 166 % of control
- T/C (dose: 62.0 mg/kg/injection, schedule: Q01DX Z (oral), vehicle: carboxymethylcellulose (CMC)): 111 % of control
- T/C (dose: 92.0 mg/kg/injection, schedule: Q01DX Z (ip), vehicle: carboxymethylcellulose (CMC)): 177 % of control
- T/C (dose: 125.0 mg/kg/injection, schedule: Q01DX Z (oral), vehicle: carboxymethylcellulose (CMC)): 109 % of control
- T/C (dose: 250.0 mg/kg/injection, schedule: Q01DX Z (oral), vehicle: carboxymethylcellulose (CMC)): 108 % of control
- T/C (dose: 500.0 mg/kg/injection, schedule: Q01DX Z (oral), vehicle: carboxymethylcellulose (CMC)): 108 % of control

SMILES: COC(=O)CCC#N
- T/C [7]: 101 % of control
- T/C [8]: 91 % of control
- T/C [9]: 102 % of control

SMILES: CCC(=O)Nc1cc(Cl)ccc1OC
- T/C [10]: 94 % of control
- T/C [11]: 98 % of control
- T/C [12]: 100 % of control
- T/C [13]: 93 % of control
- T/C [14]: 93 % of control
- T/C [15]: 106 % of control

SMILES: CCCCCCCCCCCCCCCC(=O)OCc1cc(=O)c(O)co1
- T/C [10]: 95 % of control
- T/C [11]: 91 % of control
- T/C [12]: 101 % of control
- T/C [13]: 94 % of control
- T/C [14]: 97 % of control
- T/C [15]: 94 % of control

SMILES: CCCCCC(=O)O
- T/C [7]: 100 % of control
- T/C [8]: 98 % of control
- T/C [9]: 89 % of control

SMILES: CCCCCCCC(=O)Nc1ccc(C)cc1
- T/C (dose: 50.0 mg/kg/injection, schedule: Q01DX009 (ip), vehicle: Klucel (hydroxypropylcellulose) (HPC)): 97 % of control
- T/C [10]: 95 % of control
- T/C [11]: 99 % of control
- T/C [12]: 98 % of control
- T/C [13]: 98 % of control

SMILES: CCNC(=O)N(C)Cc1ccc(Cl)cc1
- T/C [16]: 88 % of control
- T/C [17]: 95 % of control

SMILES: Cc1cccc(C)c1N1C(=O)CC(Sc2ccccc2N)C1=O (configuration not stated)
- T/C [10]: 92 % of control
- T/C [11]: 98 % of control
- T/C [12]: 88 % of control
- T/C [13]: 95 % of control
- T/C [14]: 88 % of control
- T/C [15]: 93 % of control

SMILES: CC1CCCCC1=C(C#N)C#N (configuration not stated)
- T/C (dose: 5.0 mg/kg/injection, schedule: Q01DX001 (ip), vehicle: saline): 97 % of control
- T/C (dose: 10.0 mg/kg/injection, schedule: Q01DX001 (ip), vehicle: saline): 121 % of control
- T/C (dose: 20.0 mg/kg/injection, schedule: Q01DX001 (ip), vehicle: saline): 94 % of control
- T/C (dose: 40.0 mg/kg/injection, schedule: Q01DX001 (ip), vehicle: saline): 103 % of control

SMILES: Cc1ccc(S(=O)(=O)C=C(c2ccccc2)c2ccccc2)cc1
- T/C [18]: 98 % of control
- T/C [11]: 100 % of control
- T/C [19]: 96 % of control
- T/C [13]: 95 % of control
- T/C [20]: 104 % of control
- T/C [15]: 95 % of control

SMILES: NC(=O)c1ccccc1NC(=O)Nc1cccc(F)c1
- T/C (dose: 25.0 mg/kg/injection, schedule: Q01DX009 (ip), vehicle: saline with Tween-80): 89 % of control
- T/C (dose: 50.0 mg/kg/injection, schedule: Q01DX009 (ip), vehicle: saline with Tween-80): 95 % of control
- T/C [16]: 104 % of control
- T/C [17]: 90 % of control
- T/C (dose: 400.0 mg/kg/injection, schedule: Q01DX009 (ip), vehicle: saline with Tween-80): 96 % of control

SMILES: O=C1CC(NCCO)C(=O)NN1 (configuration not stated)
- T/C [7]: 101 % of control
- T/C [8]: 97 % of control
- T/C [9]: 100 % of control

SMILES: Nc1ncnc2c1ncn2C1OC(CO)C(O)C1OCc1ccccc1 (configuration not stated)
- T/C (dose: 100.0 mg/kg/injection, schedule: Q01DX005 (ip), vehicle: saline): 90 % of control
- T/C (dose: 200.0 mg/kg/injection, schedule: Q01DX005 (ip), vehicle: saline): 103 % of control

SMILES: NNc1ccc(Br)cc1
- T/C (dose: 100.0 mg/kg/injection, schedule: Q04DX002 (ip), vehicle: Klucel (hydroxypropylcellulose) (HPC)): 102 % of control
- T/C (dose: 200.0 mg/kg/injection, schedule: Q04DX002 (ip), vehicle: Klucel (hydroxypropylcellulose) (HPC)): 115 % of control

SMILES: CC12CCC(O)CC1CCC1C3CCCC(=O)C3CCC12 (configuration not stated)
- T/C (dose: 50.0 mg/kg/injection, schedule: Q01DX009 (sc), vehicle: steriod suspending solution): 103 % of control
- T/C (dose: 100.0 mg/kg/injection, schedule: Q01DX009 (sc), vehicle: steriod suspending solution): 97 % of control
- T/C (dose: 200.0 mg/kg/injection, schedule: Q01DX009 (sc), vehicle: steriod suspending solution): 94 % of control

SMILES: CC(=O)OC1CCC2(C)C(=CCC3C2CCC2(C)C(C(C)C(O)C4C(=O)OCC4C(c4ccccc4)(c4ccccc4)c4ccccc4)CCC32)C1 (configuration not stated)
- T/C (dose: 100.0 mg/kg/injection, schedule: Q04DX002 (sc), vehicle: gum acacia): 95 % of control
- T/C (dose: 200.0 mg/kg/injection, schedule: Q04DX002 (sc), vehicle: gum acacia): 95 % of control
- T/C (dose: 400.0 mg/kg/injection, schedule: Q04DX002 (sc), vehicle: gum acacia): 92 % of control

SMILES: CC1C(=O)CC2C3(C)CCC2(C(C)C(=O)O)C(=O)C13 (configuration not stated)
- T/C [18]: 100 % of control
- T/C [10]: 104 % of control
- T/C [11]: 109 % of control
- T/C [19]: 107 % of control
- T/C [12]: 100 % of control
- T/C [13]: 106 % of control
- T/C [20]: 107 % of control
- T/C [14]: 98 % of control
- T/C [15]: 104 % of control

SMILES: OCC(O)Cc1ccccc1 (configuration not stated)
- T/C [7]: 97 % of control
- T/C [6]: 102 % of control
- T/C [8]: 105 % of control
- T/C [21]: 102 % of control
- T/C [9]: 108 % of control
- T/C [22]: 101 % of control

SMILES: C=CCc1cc(CN(C)CCO)c(O)c(OC)c1
- T/C [2]: 95 % of control
- T/C [4]: 95 % of control
- T/C [6]: 91 % of control

SMILES: CCOC(=O)C1CCCNC1 (configuration not stated)
- T/C [7]: 96 % of control
- T/C [6]: 98 % of control
- T/C [8]: 91 % of control
- T/C [21]: 101 % of control
- T/C [9]: 100 % of control
- T/C [22]: 94 % of control

SMILES: O=C(/C=C\c1ccc([N+](=O)[O-])cc1)NCCCCNC(=O)/C=C/c1ccc([N+](=O)[O-])cc1
- T/C [5]: 96 % of control

SMILES: CCCCCCCCCCCCCCCCCCCCC(C(=O)O)S(=O)(=O)O (configuration not stated)
- T/C [6]: 95 % of control
- T/C [22]: 96 % of control

SMILES: NC(=O)CC(N)c1nn[nH]n1 (configuration not stated)
- T/C [7]: 89 % of control
- T/C [6]: 97 % of control
- T/C [8]: 98 % of control
- T/C [21]: 100 % of control
- T/C [9]: 102 % of control
- T/C [22]: 103 % of control

SMILES: COc1ccc(C(=S)N(C)c2ccccc2C)cc1
- T/C [18]: 98 % of control
- T/C [11]: 96 % of control
- T/C [19]: 112 % of control
- T/C [13]: 103 % of control
- T/C [20]: 105 % of control
- T/C [15]: 100 % of control

SMILES: Nc1nc(N)c2nn(-c3ccc(C(=O)O)cc3)nc2n1
- T/C (dose: 75.0 mg/kg/injection, schedule: Q01DX001 (ip), vehicle: saline): 87 % of control
- T/C (dose: 150.0 mg/kg/injection, schedule: Q01DX001 (ip), vehicle: saline): 86 % of control
- T/C (dose: 300.0 mg/kg/injection, schedule: Q01DX001 (ip), vehicle: saline): 103 % of control

SMILES: Nc1nc(N)c(-c2ccc(Cl)c(Cl)c2)c(COc2cccc(CNC(=O)c3cccc(S(=O)(=O)F)c3)c2)n1
- T/C [1]: 110 % of control
- T/C [3]: 102 % of control
- T/C [7]: 98 % of control
- T/C [8]: 102 % of control
- T/C [9]: 105 % of control

SMILES: Cc1cccc(-n2c(N)cc(=O)[nH]c2=S)n1
- T/C (dose: 12.5 mg/kg/injection, schedule: Q01DX009 (ip), vehicle: saline): 97 % of control
- T/C (dose: 12.5 mg/kg/injection, schedule: Q04DX003 (ip), vehicle: saline): 96 % of control
- T/C [1]: 96 % of control
- T/C [2]: 96 % of control
- T/C [3]: 94 % of control and 105 % of control
- T/C [4]: 91 % of control
- T/C [7]: 87 % of control
